Assay results published in patent publication US8299072B2, “Pyrazolylmethylamine compounds as calcium channel modulators and preparation method thereof” (Korea Institute of Science and Technology, priority 2008, dated 2012).

Molecular target: T1, α1G T-type calcium channel (Homo sapiens, UniProt O43497)
T1 construct: expressed in transfected cells; host or cells: HEK293 cells stably expressing α1G, selected with G-418; The cell line KCTC 10519BP is named only for the FDSS6000 screen
Assay: T-type calcium channel activity by electrophysiological whole-cell patch-clamp technique
Format: cell-based
Settings: HEK293 cells stably expressing α1G T-type calcium channels, inhibition of inward peak currents, test pulse −30 mV, holding −100 mV
Description: The novel compounds of the present invention represented by the above formula 1 were tested for their antagonistic activities with regard to T-type calcium channel as follows.
2) Methods for the Measurements of T-Type Calcium Channel Activity Using an Electrophysiological Whole-Cell Patch-Clamp Technique
HEK293 cells stably expressing T-type calcium channels were cultured in DMEM (Dulbecco's modified Eagle's medium) containing 10% (v/v) fetal bovine serum and 1% penicillin/streptomycin (v/v) in humidified 5% CO2 at 36.5° C. Cells expressing α1G T-type calcium channels were selected using G-418 (0.5 mg/mL) in the culture medium. The culture medium was replaced with a fresh one every 3-4 days, and cells were subcultured every week.
Cells were seeded on the coverglass coated with poly-L-lysine (0.5 mg/mL) for the measurements of T-type calcium channel activity 2-7 days prior to the recordings. Whole-cell recordings of T-type calcium channel currents were performed using an EPC-9 patch clamp amplifier (HEKA, Germany). Whole-cell currents were recorded using micropipettes with resistance of 3-4MΩ with the pipette (intracellular) solution containing (in mM): 130 KCl, 11 EGTA, 5 Mg-ATP, and 10 HEPES, pH to 7.4 and with the bath (extracellular) solution containing (in mM): 140 NaCl, 2 CaCl2, and 10 HEPES, pH to 7.4. The inward currents of T-type calcium channels were evoked by the test pulses of −30 mV for 50 ms at a holding potential of −100 mV every 10 seconds.
Each compound was dissolved in dimethylsulfoxide (DMSO) as 10 mM stock solutions and diluted in the bath solution to 10 μM (containing 0.1% DMSO). […] More specifically, each compound was perfused to the bath for about 30-60 seconds, and the inhibition of the inward peak currents by a test compound was calculated as a percent inhibition from which IC50 values were determined.

T1 sequence (O43497 whole entry): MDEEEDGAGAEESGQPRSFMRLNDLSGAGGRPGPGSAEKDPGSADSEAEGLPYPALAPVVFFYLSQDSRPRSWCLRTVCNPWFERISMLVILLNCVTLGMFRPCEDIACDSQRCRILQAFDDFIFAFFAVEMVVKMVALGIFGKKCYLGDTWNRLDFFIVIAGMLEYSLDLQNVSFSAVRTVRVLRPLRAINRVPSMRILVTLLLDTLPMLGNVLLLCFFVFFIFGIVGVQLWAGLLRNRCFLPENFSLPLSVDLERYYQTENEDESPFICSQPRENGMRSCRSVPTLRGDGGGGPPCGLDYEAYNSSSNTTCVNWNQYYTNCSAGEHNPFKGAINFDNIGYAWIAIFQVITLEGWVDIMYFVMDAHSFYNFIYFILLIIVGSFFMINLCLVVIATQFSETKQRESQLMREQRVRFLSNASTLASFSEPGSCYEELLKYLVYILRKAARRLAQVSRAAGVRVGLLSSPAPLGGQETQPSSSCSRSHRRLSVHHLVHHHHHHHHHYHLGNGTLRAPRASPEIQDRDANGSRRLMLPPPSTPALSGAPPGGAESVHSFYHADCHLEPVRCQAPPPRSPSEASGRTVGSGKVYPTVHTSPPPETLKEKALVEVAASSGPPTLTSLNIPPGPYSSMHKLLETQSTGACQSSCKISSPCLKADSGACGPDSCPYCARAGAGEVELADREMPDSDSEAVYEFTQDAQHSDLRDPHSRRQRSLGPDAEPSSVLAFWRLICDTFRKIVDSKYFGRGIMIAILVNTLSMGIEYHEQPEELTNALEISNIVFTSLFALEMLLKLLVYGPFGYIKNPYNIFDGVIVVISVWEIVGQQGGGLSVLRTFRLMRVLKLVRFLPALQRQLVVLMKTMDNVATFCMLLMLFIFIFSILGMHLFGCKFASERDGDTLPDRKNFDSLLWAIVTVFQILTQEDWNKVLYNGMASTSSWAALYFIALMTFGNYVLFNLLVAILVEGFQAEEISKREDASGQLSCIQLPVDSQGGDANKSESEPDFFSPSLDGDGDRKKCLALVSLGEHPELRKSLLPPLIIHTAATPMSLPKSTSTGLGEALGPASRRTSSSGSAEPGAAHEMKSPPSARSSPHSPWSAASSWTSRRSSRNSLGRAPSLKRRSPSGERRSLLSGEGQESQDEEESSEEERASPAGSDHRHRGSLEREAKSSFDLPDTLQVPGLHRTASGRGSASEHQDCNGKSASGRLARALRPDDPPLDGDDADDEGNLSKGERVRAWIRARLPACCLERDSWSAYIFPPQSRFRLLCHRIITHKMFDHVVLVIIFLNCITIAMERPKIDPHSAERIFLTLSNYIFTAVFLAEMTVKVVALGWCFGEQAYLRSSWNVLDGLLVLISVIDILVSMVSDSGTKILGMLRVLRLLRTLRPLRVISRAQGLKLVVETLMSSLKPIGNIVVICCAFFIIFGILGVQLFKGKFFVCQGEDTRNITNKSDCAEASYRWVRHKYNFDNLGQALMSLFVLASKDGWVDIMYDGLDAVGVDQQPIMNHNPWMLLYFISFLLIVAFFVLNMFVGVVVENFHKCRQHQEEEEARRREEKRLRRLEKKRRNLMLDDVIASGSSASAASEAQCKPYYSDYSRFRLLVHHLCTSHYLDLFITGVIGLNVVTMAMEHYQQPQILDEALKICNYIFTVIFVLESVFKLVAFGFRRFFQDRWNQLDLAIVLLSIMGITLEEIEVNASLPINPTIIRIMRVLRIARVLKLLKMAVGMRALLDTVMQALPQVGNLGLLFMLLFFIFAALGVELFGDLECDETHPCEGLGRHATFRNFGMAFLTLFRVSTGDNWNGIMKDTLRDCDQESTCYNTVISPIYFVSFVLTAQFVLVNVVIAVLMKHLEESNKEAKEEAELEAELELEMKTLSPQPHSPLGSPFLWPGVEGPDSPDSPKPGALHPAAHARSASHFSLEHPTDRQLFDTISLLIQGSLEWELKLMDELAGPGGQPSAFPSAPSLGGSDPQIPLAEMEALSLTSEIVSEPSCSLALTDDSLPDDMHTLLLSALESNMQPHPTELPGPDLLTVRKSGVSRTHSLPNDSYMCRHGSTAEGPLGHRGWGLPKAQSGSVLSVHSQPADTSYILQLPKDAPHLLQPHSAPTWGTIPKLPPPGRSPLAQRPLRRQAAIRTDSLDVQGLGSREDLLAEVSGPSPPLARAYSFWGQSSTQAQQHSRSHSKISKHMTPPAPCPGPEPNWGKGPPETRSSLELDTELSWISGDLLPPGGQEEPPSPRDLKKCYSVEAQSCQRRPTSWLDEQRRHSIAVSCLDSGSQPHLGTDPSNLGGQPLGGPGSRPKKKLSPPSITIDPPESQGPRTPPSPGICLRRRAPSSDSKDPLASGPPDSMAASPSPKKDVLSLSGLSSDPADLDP

Compound	IC50 [nM]
Cc1cccc(N2CCN(CC(=O)NCc3cc(C)n(-c4ccccc4)n3)CC2)c1C [Compound No. 1, 3-{[4-(2,3-dimethyl)phenylpiperazin-1-yl]methylcarboxamido}methyl-5-methyl-1-phenyl-1H-pyrazole]	20 ± 10
Cc1cc(CNC(=O)CN2CCN(C(c3ccccc3)c3ccccc3)CC2)nn1-c1ccccc1 [Compound No. 3, 3-[(4-benzhydrylpiperazin-1-yl)methylcarboxamido]methyl-5-methyl-1-phenyl-1H-pyrazole]	1830 ± 120
Cc1cc(CNC(=O)CN2CCN(Cc3cccc(C(F)(F)F)c3)CC2)nn1-c1ccccc1 [Compound No. 5, 3-{[4-(3-trifluoromethyl)benzylpiperazin-1-yl]methylcarboxamido}methyl-5-methyl-1-phenyl-1H-pyrazole]	1420 ± 160
Cc1cc(CNC(=O)CN2CCN(Cc3ccc(Cl)c(Cl)c3)CC2)nn1-c1ccccc1 [Compound No. 6, 3-{[4-(3,4-dichlorobenzyl)piperazin-1-yl]methylcarboxamido}methyl-5-methyl-1-phenyl-1H-pyrazole]	1420 ± 160
CC(C)Cc1cc(CNC(=O)CN2CCN(c3ccccc3)CC2)nn1-c1ccccc1 [Compound No. 9, 3-[(4-phenylpiperazin-1-yl)methylcarboxamido]methyl-5-isobutyl-1-phenyl-1H-pyrazole]	3540 ± 90
O=C(CN1CCN(c2ccccc2)CC1)NCc1cc(-c2ccco2)n(-c2ccccc2)n1 [Compound No. 11, 3-[(4-phenylpiperazin-1-yl)methylcarboxamido]methyl-5-furyl-1-phenyl-1H-pyrazole]	2570 ± 170
CC(C)Cc1cc(CNC(=O)CN2CCN(Cc3ccc(C(F)(F)F)cc3)CC2)nn1-c1ccccc1 [Compound No. 16, 3-{[4-(4-trifluoromethylbenzyl)piperazin-1-yl]methylcarboxamido}methyl-5-isobutyl-1-phenyl-1H-pyrazole]	1770 ± 100
CCCc1cc(CNC(=O)CN2CCN(c3ccccc3)CC2)nn1-c1ccccc1 [Compound No. 27, 3-[(4-phenylpiperazin-1-yl)methylcarboxamido}methyl-5-propyl-1-phenyl-1H-pyrazole]	5100 ± 110
CCCc1cc(CNC(=O)CN2CCN(Cc3ccc(C(F)(F)F)cc3)CC2)nn1-c1ccccc1 [Compound No. 32, 3-{[4-(4-trifluoromethyl)benzylpiperazin-1-yl]methylcarboxamido}methyl-5-propyl-1-phenyl-1H-pyrazole]	1810 ± 90
CCCc1cc(CNC(=O)CN2CCN(Cc3ccc4c(c3)OCO4)CC2)nn1-c1ccccc1 [Compound No. 33, 3-[(4-piperonylpiperazin-1-yl)methylcarboxamido]methyl-5-propyl-1-phenyl-1H-pyrazole]	9560 ± 1420
CC(C)Cc1cc(CNC(=O)CN2CCN(c3ccccn3)CC2)nn1-c1ccccc1 [Compound No. 36, 3-{[4-(2-pyridyl)piperazin-1-yl]methylcarboxamido}methyl-5-isobutyl-1-phenyl-1H-pyrazole]	9420 ± 700
Cc1cccc(N2CCN(C(=O)CNCc3cc(C)n(-c4ccccc4)n3)CC2)c1C [Compound No. 64, 3-{[4-(2,3-dimethylphenyl)piperazin-1-yl]carbonylmethylamino}methyl-5-methyl-1-phenyl-1H-pyrazole]	2060 ± 1200
Cc1cc(CNCC(=O)N2CCN(C(c3ccccc3)c3ccccc3)CC2)nn1-c1ccccc1 [Compound No. 65, 3-[(4-benzhydrylpiperazin-1-yl)carbonylmethylamino]methyl-5-methyl-1-phenyl-1H-pyrazole]	3500 ± 350
Cc1ccc(N2CCN(C(=O)CNCc3cc(CC(C)C)n(-c4ccccc4)n3)CC2)c(C)c1 [Compound No. 69, 3-{[4-(2,4-dimethylphenyl)piperazin-1-yl]carbonylmethylamino}methyl-5-isobutyl-1-phenyl-1H-pyrazole]	400 ± 40
CC(C)Cc1cc(CNCC(=O)N2CCN(Cc3ccc(Cl)c(Cl)c3)CC2)nn1-c1ccccc1 [Compound No. 75, 3-{[4-(3,4-dichlorobenzyl)piperazin-1-yl]carbonylmethylamino}methyl-5-isobutyl-1-phenyl-1H-pyrazole]	300 ± 10
Cc1cccc(N2CCN(C(=O)CNCc3cc(CC(C)C)n(-c4ccccc4)n3)CC2)c1C [Compound No. 76, 3-{[4-(2,3-dimethylphenyl)piperazin-1-yl]carbonylmethylamino}methyl-5-isobutyl-1-phenyl-1H-pyrazole]	360 ± 30
